# Tests used:
# [1] = Chronic toxicity study, 6 months; assay type: in vivo, male guinea pigs; details: guinea pigs
# Excerpt: (§1) General toxicity of peptide H-Glu-Asp-Gly-OH was studied in accordance with the requirements of "Manual for Experimental (Pre-Clinical) Study of New Pharmacological Substances" (2000): acute toxicity in case of a single administration of the preparation, as well as subacute and chronic toxicity in case of a long-term administration of the peptide.
# Chronic toxicity was studied for 6 months basing on the duration of the recommended clinical administration of the preparation on 92 male guinea pigs with body weight 310-350 g. Experimental animals were treated with the peptide daily, once a day, intramuscularly for 6 months in the doses of 1 µg/kg, 0,1 mg/kg, 1 mg/kg in 0,5 ml of sterile 0,9% NaCl solution. Control animals received sterile 0,9% NaCl solution according to the same scheme and in the same volume. The following indices were identified in the peripheral blood of the animals using traditional methods: quantity of erythrocytes, hemoglobin, reticulocytes, thrombocytes, leukocytes, leukocyte formula, erythrocyte sedimentation rate (ESR), erythrocyte resistance. Further, total protein was identified in the blood serum by the Lowry method, as well as potassium and sodium using plasma spectrophotometry method. […]
# [2] = Acute toxicity study, single administration; assay type: in vivo, white mongrel male mice; details: mice, single intramuscular administration, 1-5 mg/kg; dose exceeds the therapeutic dose by more than 5000 times
# Experimental: as §1
# Acute toxicity study was carried out on 66 white mongrel male mice with body weight 20-22 g. The animals were randomly subdivided into 6 equal groups. The preparation was administered to the animals once, intramuscularly in the doses of 1, 2, 3, 4, 5 mg/kg in 0,25 ml of sterile 0,9% NaCl solution. Control animals were treated with 0,9% NaCl solution in the same volume.
# [3] = test system: human gastric epithelium cells SGC7901; assay: Effect on Helicobacter pylori-induced mitochondrial mechanisms of apoptosis in gastric epitheliocytes (mito-GFP confocal microscopy); assay type: cell-based; details: peptide 10 µM 30 minutes before Helicobacter pylori (strain Cag J117), 7 hours
# Experimental: To evaluate the biological activity and effects of peptide H-Glu-Asp-Gly-OH on mitochondrial mechanisms of apoptosis in gastric epitheliocytes, induced by Helicobacter pylori germs, human gastric epithelium cells SGC7901 were studied. The cells were cultivated at 37°C in a damp incubation medium containing 50 mL/L CO2 in DMEM (Dulbecco's Modified Eagle's Medium, ICN Biomedicals) and 10% calf embryonic serum. A preliminary separation of cells for passaging was carried out in the ratio of 1:3-1:5 using a mixture of 0.125% trypsin, 0.02M EDTA (ethylenediaminetetraacetic acid), 0.02% glucose dissolved in a phosphate buffer. The cells were placed on a 24-well plate in the amount of 10^6 cells per well. The cells were passaged in a cultivation medium for 5 days and then taken for study.
# On the 5th day after the beginning of cell passaging the peptide H-Glu-Asp-Gly-OH in the dose of 10 µM was administered in the cultivation medium, and in 30 minutes of incubation the cells were taken for study. Klacid antibiotic (clarithromycin, Abbott) in the dose of 500 ng/mL was administered to the cultures in the same conditions as positive control. […]
# The status of isolated mitochondria was evaluated using immunofluorescent confocal laser microscopy. […]
# Confocal microscopy of mitochondria with optical density evaluation was performed in an inverted confocal microscope Olympus Fluoview CM FV300-IX70 using an apochromatic lens 606 UPlan (Olympus). A 488 nm excitation wave of argon laser was used in each chamber to specify mito-GFP fluorescence that verifies the structure of mitochondria.
# [4] = Subacute toxicity study, 90 days; assay type: in vivo, white mongrel male rats; details: rats, daily for 90 days, 1 µg/kg, 0,1 mg/kg, doses exceed the therapeutic one by 100-1000 times
# Experimental: as §1
# Subacute toxicity study was carried out on 64 white mongrel male rats with body weight 180-220 g. Experimental animals received the preparation daily, once a day for 90 days in the doses of 1 µg/kg, 0,1 mg/kg, 1 mg/kg in 0,5 ml of sterile 0,9% NaCl solution. Control animals were treated with sterile 0,9% NaCl solution in the same volume. Before the administration of the preparation, as well as on the 30th, 60th and 90th day after the beginning of the administration of the preparation peripheral blood morphology and properties were studied in the animals. Upon completion of the experiment biochemical and coagulology indices of the blood were evaluated.
substance,measurement,setting,value
glutamyl-aspartyl-glycine [H-Glu-Asp-Gly-OH],chronic toxicity,"[1]; intramuscularly daily for 6 months, 1 µg/kg, 0,1 mg/kg, 1 mg/kg, doses exceed the therapeutic one by 100-1000 times",no side effects
same,"effect on the ESR, erythrocyte resistance and biochemical indices of the blood serum",[1]; long-term administration,No significant effect
same,acute toxicity,[2],does not cause toxic reactions
same,mitochondrial GFP expression by optical density,"[3]; control 2.57±0.23, H. pylori alone 0.35±0.05",2.48±0.17 conv. units
same,mitochondrial GFP expression by expression area,"[3]; control 3.42±0.19, H. pylori alone 0.63±0.03",3.84±0.20%
same,subacute toxicity,[4],no side effects
